Assay results taken from patent US5739162A, “Carbamoylmethylurea derivatives” (Shionogi & Co., Ltd., priority 1994, dated 1998).

Columns and labels:
CCK-A receptor = biological target: T1, CCK-A receptor (Mus musculus, UniProt O08786); assay: CCK-A receptor antagonism: displacement of [3H]CCK-8 from crude membrane of pancreas; format: binding, mouse (male ddY); conditions: [3H]CCK-8 1 nM, 90 min, 25° C.
T1 construct: crude membrane specimen from mouse pancreas; from tissue; host or cells: pancreas of male ddY mice, crude membranes
T1 sequence (O08786 1-436): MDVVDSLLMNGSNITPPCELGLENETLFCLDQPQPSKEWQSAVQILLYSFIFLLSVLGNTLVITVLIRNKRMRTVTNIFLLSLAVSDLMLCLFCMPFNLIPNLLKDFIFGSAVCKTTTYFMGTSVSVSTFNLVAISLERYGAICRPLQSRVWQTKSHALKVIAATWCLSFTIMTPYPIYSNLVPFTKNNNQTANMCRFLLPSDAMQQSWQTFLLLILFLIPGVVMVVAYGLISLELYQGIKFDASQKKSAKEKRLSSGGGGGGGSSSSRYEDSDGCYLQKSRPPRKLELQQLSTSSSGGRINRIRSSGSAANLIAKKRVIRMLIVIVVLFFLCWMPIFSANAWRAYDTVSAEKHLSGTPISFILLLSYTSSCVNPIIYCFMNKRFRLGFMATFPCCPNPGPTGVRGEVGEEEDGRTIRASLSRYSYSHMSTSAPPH
Description: (§1) The pharmacological effect of compounds (I) prepared in Examples above were evaluated in vitro with respect to antagonistic activity against gastrin receptor, CCK-B receptor or CCK-A receptor, using fundic gland cells of guinea pig, crude membrane specimen from mouse cerebral cortex, or crude membrane specimen from mouse pancreas, respectively.
(§2) Male Hartley guinea pig (450-600 g) or male ddY mouse (24-30 g) were used.
(§3) (2) CCK-A Receptor Antagonism and CCK-B Receptor Antagonism Preparation of CCK receptor preparations Male ddY mice (24 to 30 g) were killed by decapitation and cerebral cortex (CCK-B) and pancreas (CCK-A) were extracted immediately. Each of cerebral cortex and pancreas was mixed with 50 mM Tris-HCl buffer (pH 7.4) and homogenized with a teflon-glass homogenizer and polytron homogenizer to obtain crude membrane specimens.
(§4) Preparation of test compounds and procedures of displacing assay
(§5) A 1M solution of a compound to be tested in DMSO is prepared and diluted with 50% DMSO to obtain a ten-fold dilution series.
(§6) The reaction is initiated by the addition of crude membrane specimen to solutions of different concentration each containing [^3 H]CCk-8 (final concentration, 1 nM). The mixture is incubated for 90 min at 25° C., filtered through glass filter with aspiration and washed with a cooled 50 mM Tris buffer. After the addition of Aquazol-2 cocktail the radioactivity is counted. The same procedure was repeated using 50% DMSO solution or Ceruletide (final concentration, 1 μM) instead of a solution of test compound so as to obtain the control value regarding total binding or the value regarding non-specific binding, respectively.
(§7) The IC50 was determined by plotting the ratio (%) of specific binding of a test compound to that of control on semilogarithmic graph and obtaining the concentration corresponding to 50%, wherein: specific binding of control=total binding (cpm)--non-specific binding (cpm); and specific binding of test compound=total binding (cpm)--non-specific binding (cpm).

gastrin receptor = biological target: T2, gastrin receptor (Cavia porcellus, UniProt H0VZC5); assay: Gastrin receptor antagonism: displacement of 125I-labeled gastrin from gastric glands; format: binding, guinea pig (male Hartley); conditions: guinea pig fundic gastric glands; 125I-gastrin 0.2 nM; 30 min, 25° C.
T2 construct: stomach was extracted from each animal immediately, from which gastric glands were prepared; from tissue; host or cells: gastric (fundic) glands of male Hartley guinea pigs
T2 sequence (H0VZC5 1-426): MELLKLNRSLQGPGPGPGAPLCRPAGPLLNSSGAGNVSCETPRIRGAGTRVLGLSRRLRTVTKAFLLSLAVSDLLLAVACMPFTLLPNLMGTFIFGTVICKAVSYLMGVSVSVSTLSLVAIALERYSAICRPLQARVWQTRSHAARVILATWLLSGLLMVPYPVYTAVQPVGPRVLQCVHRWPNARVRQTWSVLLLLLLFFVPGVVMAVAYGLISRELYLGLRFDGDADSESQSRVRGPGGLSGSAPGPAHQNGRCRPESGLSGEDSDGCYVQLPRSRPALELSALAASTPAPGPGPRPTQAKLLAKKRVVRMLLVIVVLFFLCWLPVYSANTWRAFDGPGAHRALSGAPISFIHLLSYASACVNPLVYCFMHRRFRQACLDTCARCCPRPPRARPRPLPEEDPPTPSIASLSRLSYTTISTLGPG
Description: as §1, §2
(1) Gastrin Receptor Antagonism
Preparation of gastric glands
Male Hadley guinea pigs (450-600 g) were killed by bleeding and stomach was extracted from each animal immediately, from which gastric glands were prepared.
Preparation of test compounds and procedures of displacing assay A 1M solution of a compound to be tested in DMSO is prepared and diluted with 50% DMSO to obtain a ten-fold dilution series.
The reaction is initiated by the addition of gastric glands to solutions of different concentration each containing ^125 I-labeled gastrin (final concentration, 0.2 nM). The mixture is incubated for 30 min at 25° C., centrifuged at 2000 rpm for 5 min and the supernatant is removed by aspiration. To the pellet is added ice-cooled incubation buffer and mixed gently, followed by an immediate centrifugation and removal of the supernatant by aspiration. The radioactivity is counted on gamma counter. The same procedure was repeated using 50% DMSO solution or human gastrin I (final concentration, 2 μM) instead of a solution of test compound so as to obtain the control value regarding total binding or the value regarding non-specific binding, respectively.
as §7

CCK-B receptor = biological target: T3, CCK-B receptor (Mus musculus, UniProt P56481); assay: CCK-B receptor antagonism: displacement of [3H]CCK-8 from crude membrane of cerebral cortex; format: binding, mouse (male ddY); conditions: [3H]CCK-8 1 nM, 90 min, 25° C.
T3 construct: crude membrane specimen from mouse cerebral cortex; from tissue; host or cells: cerebral cortex of male ddY mice, crude membranes
T3 sequence (P56481 1-453): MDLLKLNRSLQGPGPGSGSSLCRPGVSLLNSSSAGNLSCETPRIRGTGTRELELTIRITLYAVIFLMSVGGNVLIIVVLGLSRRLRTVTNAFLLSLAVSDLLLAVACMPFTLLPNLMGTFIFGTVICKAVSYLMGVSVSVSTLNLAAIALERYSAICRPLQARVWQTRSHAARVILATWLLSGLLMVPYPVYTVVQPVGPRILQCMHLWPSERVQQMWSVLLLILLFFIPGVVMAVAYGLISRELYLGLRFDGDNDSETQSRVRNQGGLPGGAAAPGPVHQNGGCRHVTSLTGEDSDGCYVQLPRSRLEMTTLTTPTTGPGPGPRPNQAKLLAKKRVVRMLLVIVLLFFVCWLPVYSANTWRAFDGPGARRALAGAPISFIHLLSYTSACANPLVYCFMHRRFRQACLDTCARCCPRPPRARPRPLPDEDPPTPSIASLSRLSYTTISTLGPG
Description: as §1, §2, §3, §4, §5, §6, §7

SMILES | IC50 (CCK-A receptor) [nM] | IC50 (gastrin receptor) [nM] | IC50 (CCK-B receptor) [nM]
CC(C)(C)OC(=O)CN(C(=O)CNC(=O)Nc1cccc(-c2nnn(C(c3ccccc3)(c3ccccc3)c3ccccc3)n2)c1)c1ccccc1C(=O)c1ccccc1 [Compound 7f, 2-(N-(tert-Butoxycarbonylmethyl)-N'-(m-(2-(triphenylmethyl)tetrazol-5-yl)phenyl)ureidomethylcarbonylamino)benzophenone] | 1650 | 1 | 8
CC(C)(C)OC(=O)CN(C(=O)CNC(=O)Nc1ccc(Cl)cc1)c1ccccc1C(=O)c1ccccc1 [Compound 7y, 2-(N-(tert-Butoxycarbonylmethyl)-N'-(p-chlorophenyl)ureidomethylcarbonylamino)benzophenone] | 1800 | 42 | 190
Cc1ccc(NC(=O)NCC(=O)N(CC(=O)OC(C)(C)C)c2ccccc2C(=O)c2ccccc2)cc1 [Compound 7z, 2-(N-(tert-Butoxycarbonylmethyl)-N'-(p-tolyl)ureidomethylcarbonylamino)benzophenone] | 1900 | 6 | 66
CC(C)(C)OC(=O)CN(C(=O)CNC(=O)Nc1cccc(CC(=O)O)c1)c1ccccc1C(=O)c1ccccc1 [Compound 8i, 2-(N-(tert-Butoxycarbonylmethyl)-N'-(m-(carboxymethyl)phenyl)ureidomethylcarbonylamino)benzophenone] | 1700 | 2 | 3
CC(C)(C)OC(=O)CN(C(=O)CNC(=O)Nc1cccc(OCC(=O)O)c1)c1ccccc1C(=O)c1ccccc1 [Compound 8j, 2-(N-(tert-Butoxycarbonylmethyl)-N'-(m-(carboxymethyloxy)phenyl)ureidomethylcarbonylamino)benzophenone] | 2200 | 3 | 8
COC(=O)Cc1cccc(NC(=O)NCC(=O)N(CC(=O)OC(C)(C)C)c2ccccc2C(=O)c2ccccc2)c1 [Compound 9m] | 1350 | 2 | 11
CC(C)(C)OC(=O)CN(C(=O)CNC(=O)Nc1cccc(C(=O)O)c1)c1ccccc1C(=O)C1CCCCC1 [Compound 15d, Cyclohexyl-(2-(N-(t-butoxycarbonylmethyl)-N-(N'-(m-carboxyphenyl)ureidomethylcarbonyl)amino)phenyl)ketone] | 2000 | 3 | 6
C=CCOC(=O)c1cccc(NC(=O)NCC(=O)N(CC(=O)NC(C)(C)C)c2ccccc2C(=O)c2ccccc2)c1 [Compound 16a, 2-(N-(tert-Butylcarbamoylmethyl)-N'-(m-(aryloxycarbamoyl)phenyl)ureidomethylcarbonylamino)benzophenone] | 4400 | 25 | 215
CC(C)(C)NC(=O)CN(C(=O)CNC(=O)Nc1cccc(C(=O)O)c1)c1ccccc1C(=O)c1ccccc1 [Compound 16b, 2-(N-(tert-Butylcarbamoylmethyl)-N'-(m-carboxyphenyl)ureidomethylcarbonylamino)benzophenone] | > 10000 | 6 | 210
